In ChEMBL document CHEMBL1139791, “Highly efficient antitumor agents of heterocycles containing sulfur atom: linear and angular thiazonaphthalimides against human lung cancer cell in vitro” (Bioorg Med Chem, 2007):

Legend:
A549 = experiment: Cytotoxicity against human A549 cells after 72 hrs by sulforhodamine B dye assay; assay type: functional, cell-based; conditions: A549, 72 h
P388 = experiment: Cytotoxicity against mouse P388 cells after 48 hrs by tetrazolium-formazan method; assay type: functional, cell-based; conditions: P388, 48 h

| Compound | IC50 (A549) [nM] | IC50 (P388) [nM] |
| --- | --- | --- |
| CN(C)CCCN1C(=O)c2cccc3c2c(cc2nc(N)sc23)C1=O | 772 | 1230 |
| CN(C)CCN1C(=O)c2cccc3cc4nc(N)sc4c(c23)C1=O | 0.8 | 5 |
| CN(C)CCN1C(=O)c2cccc3c2c(cc2nc(N)sc23)C1=O | 500 | 1030 |
| CN(C)CCCN1C(=O)c2cccc3cc4nc(N)sc4c(c23)C1=O | 21.8 | 294 |
| CN(C)CCN1C(=O)c2cccc3cc4ncsc4c(c23)C1=O | 39.8 | 83.9 |
| CN(C)CCN1C(=O)c2cccc3cc4nc(O)sc4c(c23)C1=O | 45 | 52.5 |
| CN(C)CCN1C(=O)c2cccc3cc4nc(Cl)sc4c(c23)C1=O | 88 | 18.5 |
| CN(C)CCNc1nc2cc3cccc4c3c(c2s1)C(=O)N(CCN(C)C)C4=O | 30.6 | 8.31 |
